These results are taken from a melting point compilation (Tetko et al.; mined from patent text by program, amines drawn as free bases though some values may be those of a salt).

In general, melting point refers to the temperature, or range, at which the solid turns liquid. Turning to `Nc1ncccc1-c1nc2ccc(-c3cccnc3)nc2n1-c1ccc(NC(=O)c2ccccc2)cc1`, the melting point lay in the range of 222 to 224 °C.

Regarding `N#Cc1cccnc1N1CCN(CNC(=O)c2ccccc2)CC1`, the melting point is 133 to 136 °C.

The compound `O=C(Nc1ccc(CCCCn2ccnn2)cc1)c1coc(C=Cc2ccc(C(F)(F)F)cc2)n1` had a melting point of 183 to 185 °C.

Consider `OCC1COC2(CCN(CCc3ccccc3)CC2)O1` (stereo not drawn), for which the melting point is 96 °C.

As for `CC(C)(C)OC(=O)CN1CCC(CNC(=O)N2CCN(C3CCN(C(=O)OC(C)(C)C)CC3)CC2)CC1`, the melting point was in the range of 131 to 133 °C.

With `CN(C)c1ccc(-c2cnc(N)c([N+](=O)[O-])c2)cc1`, the melting point is 212 °C.

For `COc1ccc2c(c1)NCc1ccccc1O2`, the melting point is 110 to 112 °C.

`COc1ccc(CCS(=O)(=O)CC2CCC2)cc1` yielded a melting point of 52 °C.

In turn, `OCc1cc(F)cc(Br)c1` returned a melting point of 41 to 43 °C.

`C#CCNC(=O)N1CC(Oc2ccc(Br)cc2)C1` yielded a melting point of 120 to 122 °C.

`C=CCNc1nc(NC(=O)NC(C)(C)C)c2cc([N+](=O)[O-])ccc2n1`: the melting point was 200 to 201 °C.

For `COC(=O)CCc1cc2cc(Cl)ccc2n1S(=O)(=O)c1ccc2nc(N)sc2c1`, the melting point was in the range of 217 to 222 °C.

`CCCCCCCCCCCCc1ccccc1C(CC(=O)O)SCCC(=O)O` (stereo not drawn) had a melting point of 55 to 56 °C.

Compound `O=c1cc(-c2ccc(F)cc2)c2c([nH]1)C1CCC(C2)C1` (stereo not drawn) displayed a melting point greater than 300 °C.

Compound `CCC1(CCCBr)C(=O)NC(=O)NC1=O` came in with a melting point of 138 to 140 °C.

`O=C(Nc1ccc(C(O)(C(F)(F)F)C(F)(F)F)cc1)Oc1ccccc1`: the melting point lay within 192 to 194 °C.

Regarding `O=[N+]([O-])c1ccc(-n2cccn2)cc1`, the melting point is 210 °C.

Compound `COC(=O)Nc1c(C(=O)O)ccc(Cl)c1Cl` showed a melting point of 155 to 156 °C.

The compound `N#CC(Cl)=C(Cl)S(=O)(=O)c1ccccc1` came in with a melting point of 72 °C.

As for `CC(C)(C)c1ccc(CCC2CO2)cc1NC(=O)CC1c2ccccc2Oc2ccccc21` (stereo not drawn), the melting point was 156 to 157 °C.

Regarding `O=C(Cc1ccccc1)NCCc1ccccc1`, the melting point lay within 91 to 92 °C.

On to `CCCc1nnc2ccc(-c3ccc(C(F)(F)F)cc3)nn12`, for which the melting point lay in the range of 173 to 175 °C.

`COC(=O)C(Oc1cc(OCc2ccsc2)ccc1C#N)c1ccccc1F` (racemic) yielded a melting point of 104 to 106 °C.

`O=C1NCc2cccnc2N1c1cccc(I)c1` displayed a melting point of 175 to 177 °C.

As to `CCCCCCCCCCCCCCn1nnc(NC(=O)Nc2c(C(C)C)cccc2C(C)C)n1`, the melting point is 112 to 114 °C.

As to `c1ccc2c3c([nH]c2c1)C(c1ccc2c(c1)CCO2)NCC3` (stereo not drawn), the melting point lay within 98 to 99 °C.

In turn, `CC(C)(C)COC(=O)COc1ccc(C(=O)CN2CCN(c3ccncc3)CC2)cc1` had a melting point of 88 to 90 °C.

In turn, `Oc1ccc2[nH]cc(C3=CCN(Cc4ccccc4)CC3)c2c1` returned a melting point of 223 to 227 °C.

On to `CC(C)C(=O)Oc1ccc2c(c1Cl)Sc1ccccc1N2`, for which the melting point is 155 °C.

Take `COC(=O)C1=C(C)NC(C)=C(C(=O)OC)C1c1cccc(N(C)C(=NC#N)NCCCN2CCC(c3ccccc3)CC2)c1`: the melting point was 85 to 90 °C.

With `O=C(NN=Cc1cccc(C(F)(F)F)c1Cl)c1ccc(O)cc1`, the melting point was found to be 262 °C.

For the compound `N#Cc1c(N2CCN(C(=O)c3ccco3)CC2)c2cc(Cl)cnc2n(Cc2cccc(F)c2)c1=O`, the melting point came to 134 °C.

Regarding `CCn1cc(C(=O)Nc2ccccc2)c(=O)n2c3ccccc3nc12`, the melting point is 268 to 270 °C.

`CNC(=O)c1ccc2c(c1)C(=O)N1CCC[C@@H]1CO2` came in with a melting point of 186 to 189 °C.

`CC1(C)c2ccccc2N2Cc3cc(N=Nc4ccc([N+](=O)[O-])cc4)ccc3OC21c1ccccc1` (stereo not drawn) had a melting point of 200 °C.

For `Cc1ccc(F)cc1C(=O)Nc1ccc(C(=O)N2Cc3ccccc3Oc3ccccc32)cn1`, the melting point was in the range of 180 to 186 °C.

In turn, `CN(Cc1ccc(NC(=O)C2=Cc3cc(-c4ccc(C(C)(C)C)cc4)ccc3S(=O)(=O)CC2)cc1)C1CCOCC1` came in with a melting point of 247 to 249 °C.

Compound `CC=CC(=O)c1ccc(CCCCNC(C)=O)cc1` registered a melting point of 64 to 66 °C.

Compound `COc1cccc(Cc2ccc3nc(N)nc(N)c3c2)c1` had a melting point of 207 to 209 °C.

For `CCCCCCCCC(O)C(O)CCCCCCCCCCCC(N)=O` (stereo not drawn), the melting point is 153 to 154 °C.

Take `Cc1cccc2cc3c(=O)n([C@@H](C)c4ccccc4)cc(C(=O)O)c3nc12`: the melting point is 234 to 235 °C.

`CN(c1cccc2cc(C3=NCC(C)(CN4CCNCC4)S3)[nH]c12)S(=O)(=O)c1cccs1` (stereo not drawn) displayed a melting point of 178 to 180 °C.

As for `Cc1cc(C(=O)O)sn1`, the melting point lay in the range of 203 to 204 °C.

Compound `O=C(O)c1ccc2c(c1)S(=O)(=O)c1ccc(Cl)cc1C=C2` displayed a melting point of 276 to 278 °C.

`CCOC(=O)c1c(C(=O)Cc2c(CCNCCc3ccccc3)cc3c(c2OC)OCO3)ccc(OC)c1OC` returned a melting point of 102 to 104 °C.

The compound `O=C(O)c1ccc2c(c1)nc(-c1ccc(OC(c3cccc(F)c3)c3cccc(F)c3)cc1F)n2C1CCCCC1` registered a melting point of 242 to 243 °C.

`CCOC(=O)C(C)(C(=O)OCC)C(=O)c1cc([N+](=O)[O-])cc(Br)c1Cl`: the melting point lay in the range of 75 to 76.5 °C.

Compound `CCOC(=O)c1c(O)c2cc(C)ccc2n(C)c1=O` displayed a melting point of 132 °C.

For the compound `O=C(O)c1cc2ccc(OCCc3ccccc3)cc2oc1=O`, the melting point fell in the range of 150 to 151 °C.

With `O=C(c1ccccc1)N1CCc2cc(Cl)ccc21`, the melting point lay in the range of 135 to 136 °C.

In the case of `C=C(C(=O)OC)N(Cc1cc(C)ccc1NC(=O)c1ccccc1)S(=O)(=O)c1ccc(OC)cc1`, the melting point fell in the range of 58 to 62 °C.

In turn, `NC(=O)c1cncnc1` returned a melting point of 175 to 178 °C.

On to `ON=C(Cc1ccccc1)c1cccnc1`, for which the melting point was 122 to 126 °C.

In the case of `Cn1cc(-c2cc3cccnc3[nH]2)c2ccc(C(=O)O)cc21`, the melting point lay within 359 to 361 °C.

Regarding `CNC(=O)NCCn1c(-c2ccc(CN3CCOCC3)cc2OC)csc1=Nc1ccc(F)c(C)c1`, the melting point lay in the range of 158 to 162 °C.

The compound `C[C@H](N)C(=O)NC1N=C(c2ccccc2Cl)c2cc(Cl)ccc2N(C)C1=O` (stereo partly drawn) registered a melting point of 232 to 233 °C.

Compound `Cn1nc(S(=O)(=O)c2ccccc2)c2cc(N3CCN(Cc4ccccc4)CC3)ccc21` showed a melting point of 195 to 197 °C.

For `OC(c1cc(F)ccc1F)c1cc(Cl)ncc1Cl` (stereo not drawn), the melting point was in the range of 160 to 161 °C.

Consider `CCCCCCCCCCCCCCCCCCOc1cc(C(=O)OC)cc(N(CC(=O)OCc2ccccc2)CC(=O)OCc2ccccc2)c1`, for which the melting point lay within 62 to 63 °C.

Compound `CCCCC1(CCCC)Cc2c(O)cccc2C1=O` returned a melting point of 114 to 115 °C.

Take `CCCc1c(OCc2cccn3c(=O)c(CC(=O)OCC)cnc23)ccc(C(C)=O)c1O`: the melting point was in the range of 134 to 135 °C.

For `CCCC(=O)C1c2cccc(OC(=O)C(C)(C)C)c2C(=O)c2c(OC(=O)C(C)(C)C)cccc21`, the melting point was found to be 120 °C.

The compound `Cn1nc(-c2cc(Oc3ccccc3)c(C#N)cc2F)c(Cl)c1C(F)(F)F` yielded a melting point of 123 °C.
